Assays:
amidase = test: Mouse liver microsomal amidase, isoniazid to isonicotinic acid; format: biochemical
Source text: Mouse liver microsomes were used as the source of amidase, and isoniazid was used as the amidase metabolism drugs. quantitative isoniazid was catalyzed into metabolites isonicotinic acid (INA) by amidase, and was used as the index for measurement of the amidase activity for establishment of the platform for screening in vitro amidase activity inhibitors. The HPLC system includes a Shimadzu the LC-LOAD pump, 1 Shimadzu system control and a Shimadzu autosampler (Shimadzu Scientific Instrument, Japan). A C18 column (particle size 5 μm, inner diameter of 50×4.6 mm, 25 cm) containing 70% methanol and 30% ammonium formate (50 mM, pH=2.5) of the mobile phase for HPLC separation, and the experimental steps are outlined as follows:
(2) An aliquot of 150 μL mouse liver microsomal solution was added to 100 μL isoniazid solution in 35 μL 67 mM potassium phosphate buffer solution ([…], pH=7) with a final concentration at 3 mM, and then mixed thoroughly with 15 μL amidase inhibitor (deionized water was added in the control group). (3) Incubation at 37° C. water bath for 30 minutes. (4) An aliquot of 300 μL acetonitrile (ACN) was added and mixed thoroughly, and incubated for 6 minutes. (5) An aliquot of 30 μL perchloric acid was then mixed and incubated for 6 minutes. (6) The mixture was centrifuged at 13000 g for 6 minutes. (7) After centrifugation, 100 μL of the supernatant was injected into HPLC. (8) Methanol ammonium formate (50 mM, pH=2.5)=70:30 (V/V) was selected as the mobile phase, and the flow rate was controlled at […] and detected at 270 nm UV. […] The amidase inhibition % was then calculated using the following formula: […]

[1] = biological target: human liver microsomal cytochrome P450 2E1 (CYP2E1) (Homo sapiens, UniProt P05181); test: Human liver microsomal CYP2E1, chlorzoxazone 6-hydroxylation;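 further: chlorzoxazone added as substrate, 6-hydroxychlorzoxazone formation quantified by LC/MS/MS after 30 min at 37 °C with NADP+ regenerating system, compared against solvent control without test sample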
Method: (§1) Microsomes prepared from human liver were used to extract cytochrome P450 2E1 (CYP2E1) and CYP2E1 inhibitors were screened from 39 Chinese medicine guiding drugs and 10 excipients. Chlorzoxazone hydroxylation is a reaction catalyzed primarily by CYP2E1 in liver. The extracted human liver microsomal cytochrome P450 2E1 (CYP2E1) was mixed with its substrate, Chlorzoxazone, and test sample was then added Inhibition of CYP2E1 activity was calculated by measuring CYP2E1 standard metabolite, 6-OH-CZX (6-Hydroxy-Chlorzoxazone), and compared with control 6-OH-CZX.
(§2) After incubation, 16 mM Chlorzoxazone and test samples were added to experimental groups; methanol:sterilized water at 1:1 ratio was added to control groups and DDTC was added to positive control groups,
(§3) Finally, cofactor 1 mM NADP^+, 10 mM G6P and 2 IU G6PD were added and reaction mixtures were transferred to pre-incubation 37° C. water bath for 1 mM and activity was measured after 30 min of reaction
(§4) At the end of reaction, 500 μl acetonitrile was added to stop the reaction followed by 5 g/mL 4-hydroxy-tobutamide after 1 mM incubation. The mixture was then centrifuged and 20 L of supernatant was diluted ten times with methanol/sterilized water and 5 L was used for LC/MS/MS analysis. […] The inhibition of CYP2E1 was then calculated by the following equation:

CYP2E1 = CYP2E1 (Homo sapiens, UniProt P05181); test: as above; settings: human; for inhibition at 30 min, 16.5 µM / inhibition at 30 min, 33 µM / inhibition at 30 min, 66 µM / inhibition at 30 min, 0.08 % (w/v) / inhibition at 30 min, […] (w/v): human liver microsomes, pH 7.4, probe Chlorzoxazone; for inhibition at 30 min, 0.167 % (w/v): microsomes, pH 7.4
Method: as §1, §2, §3, §4

[2] = biological target: cytochrome P450 2E1 (CYP2E1) (Homo sapiens, UniProt P05181); test: CYP2E1 High Throughput Inhibitor Screening Kit, cDNA synthesized microsomal CYP2E1 (MFC to HFC); settings: for Minimum Effective Dose: Table 3, minimum tested concentration (mg/L) × volume of human liver and intestine (3L)
Source text: CYP2E1 High Throughput Inhibitor Screening Kit (BD Bioscience, USA) was used to screen the cytochrome P450 (CYP2E1) inhibitors from 22 Chinese medicine guiding drugs and 10 excipients and microsomal cytochrome P450 (CYP2E1) was synthesized from cDNA (BD Bioscience, USA). The principle of the screening kit is to measure the percentage of CYP2E inhibition, after adding the test sample to substrate MFC (7-Methoxy-4-trifluoromethyl coumarin) and cytochrome P450 (CYP2E1), by measuring the synthesis of standard CYP2E1 metabolite (HFC, 7-Hydroxy-4-trifluoromethyl coumarin) and use control HFC as baseline.
a. 149 μl NADPH-Cofactor Mix and 1 μl 20 mM DDTC were added to the #1 well in a 96-well plate and mixed thoroughly,
b. Add 100 μl Cofactor/acetonitrile mix to #2 to #12 wells, and well #1 to #8 are positive control. Well #9 and 10 are control and well #11 and #12 are blank,
c. […] Preparation of Experimental Groups: a. […] Transfer 50 μl from well #1 and #2 and added to well #3 and mixed thoroughly (triplicate for each sample), 3. Initiation and Termination of the Reaction: a. The 96-well plate was incubated at 37° C. for […], b. 100 μl of Enzyme/Substrate Mix was added to every well and mixed thoroughly except the blank wells, c. The 96-well plate was incubated at 37° C. for 40 min, d. 75 μl Stop Solution was added to every well and mixed thoroughly, e. Immediately add 100 μl Enzyme/Substrate Mix to blank wells and mixed thoroughly, f. Measure with a Fluoroskan Ascent FL (Thermo Electron Corporation, Finland) with excitation at 405 nm and emission at 538 nm, 4. The fluorescence was transverse into CYP 2E1 metabolite standard (HFC) concentration (pmol) and the percentage (%) of CYP 2E1 inhibition was calculated using control as baseline by following equation: […]

[3] = Table 6, minimum tested concentration (mg/L) × volume of human liver and intestine (3 L)

Sequence of cytochrome P450 2E1 (CYP2E1) (P05181 whole entry): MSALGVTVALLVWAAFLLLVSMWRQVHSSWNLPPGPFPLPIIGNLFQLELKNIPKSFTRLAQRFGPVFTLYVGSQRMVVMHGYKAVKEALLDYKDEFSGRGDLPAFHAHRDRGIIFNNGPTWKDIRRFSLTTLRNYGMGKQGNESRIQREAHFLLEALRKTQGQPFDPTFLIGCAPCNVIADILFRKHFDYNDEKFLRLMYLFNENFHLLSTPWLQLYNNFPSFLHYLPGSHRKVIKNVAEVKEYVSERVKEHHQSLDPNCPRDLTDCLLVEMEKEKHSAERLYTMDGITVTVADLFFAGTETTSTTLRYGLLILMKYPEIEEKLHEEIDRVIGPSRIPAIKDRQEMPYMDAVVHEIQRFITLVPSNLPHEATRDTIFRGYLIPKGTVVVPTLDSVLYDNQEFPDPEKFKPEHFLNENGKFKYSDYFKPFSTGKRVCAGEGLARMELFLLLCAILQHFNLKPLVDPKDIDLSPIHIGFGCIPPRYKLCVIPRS
Sequence of human liver microsomal cytochrome P450 2E1 (CYP2E1) (P05181 whole entry): as above
Sequence of CYP2E1 (P05181 whole entry): as above

| Compound | Amidase inhibition (amidase; 1 uM) | Amidase inhibition (amidase; 10 uM) | Amidase inhibition (amidase; 100 uM) | Minimum Effective Dose [1, 3] | further results |
| --- | --- | --- | --- | --- | --- |
| O=c1cc(-c2ccc(O)cc2)oc2cc(O)c([C@@H]3O[C@H](CO)[C@@H](O)[C@H](O)[C@H]3O)c(O)c12 [Isovitexin] | 13.9 ± 2.3% | 5.8 ± 2.7% | 1.1 ± 7.1% | 24 mg | – |
| COc1ccc(-c2cc(=O)c3c(O)cc(O[C@@H]4O[C@H](CO[C@@H]5O[C@@H](C)[C@H](O)[C@@H](O)[C@H]5O)[C@@H](O)[C@H](O)[C@H]4O)cc3o2)cc1O [Diosmin] | 0.3 ± 8.1% | −0.7 ± 7.7% | 1.6 ± 5.1% | 33 mg | – |
| C/C=C/C=C/C(=O)O [Sorbic acid] | – | – | – | – | Minimum Effective Dose ([1]; Table 7): 6 mg; inhibition at 30 min, 16.5 µM (CYP2E1): 8.4 ± 1.6%; inhibition at 30 min, 33 µM (CYP2E1): 10.9 ± 2.1%; inhibition at 30 min, 66 µM (CYP2E1): 14.8 ± 0.1% |
| O=c1cc(-c2ccc(O)cc2)oc2cc(O)cc(O)c12 [Apigenin] | −10.2 ± 20.3% | 13.2 ± 3.4% | – | 15 mg | – |
| CC1=CC(=O)NS(=O)(=O)O1 [Acesulfame K] | – | – | – | – | Amidase inhibition (amidase; 0.0005%): −12.4 ± 27.4%; Amidase inhibition (amidase; 0.005%): −167.2 ± 167.3%; Amidase inhibition (amidase; 0.05%): 24.3 ± 4.9%; Minimum Effective Dose ([1]; Table 7): 10 mg; inhibition at 30 min, 0.08 % (w/v) (CYP2E1): 7.1 ± 2.3%; inhibition at 30 min, […] (w/v) (CYP2E1): 3.9 ± 2.7%; inhibition at 30 min, 0.167 % (w/v) (CYP2E1): 14.5 ± 1.9% |
| COc1ccc(-c2oc3cc(O)cc(O)c3c(=O)c2O)cc1O [Tamarixetin] | 3.5 ± 10.5% | 27.9 ± 6.3% | 28.9 ± 4.2% | 17 mg | – |
| O=c1cc(-c2ccccc2)oc2cc(O)c(O)c(O)c12 [Baicalein] | 2.8 ± 15.1% | 5.7 ± 2.6% | 15.6 ± 1.0% | 15 mg | – |
| O=c1c(O)c(-c2cc(O)c(O)c(O)c2)oc2cc(O)cc(O)c12 [Myricetin] | 8.0 ± 4.9% | 37.8 ± 8.4% | 56.4 ± 1.5% | 17 mg | – |
| O=C(O)CC(O)(CC(=O)O)C(=O)O [Citric acid] | – | – | – | – | Minimum Effective Dose ([1]; Table 7): 10 mg; inhibition at 30 min, 16.5 µM (CYP2E1): 9.9 ± 3.1%; inhibition at 30 min, 33 µM (CYP2E1): 15.5%; inhibition at 30 min, 66 µM (CYP2E1): 20.5 ± 1.8% |
| CCCCCCCCCCCCOS(=O)(=O)[O-].[Na+] [Sodium lauryl sulfate] | – | – | – | – | Amidase inhibition (amidase; 0.0005%): 9.6 ± 5.0%; Amidase inhibition (amidase; 0.005%): 19.3 ± 2.7%; Amidase inhibition (amidase; 0.05%): 66.1 ± 2.1%; Minimum Effective Dose ([1]; Table 7): 14 mg; inhibition at 30 min, 16.5 µM (CYP2E1): 4.6 ± 1.1%; inhibition at 30 min, 33 µM (CYP2E1): 6.4 ± 0.9%; inhibition at 30 min, 66 µM (CYP2E1): 4.9 ± 1.6% |
| Oc1cc(O)c2c(c1)O[C@H](c1cc(O)c(O)c(O)c1)[C@H](O)C2 [(−)-Epigallocatechin] | −1.2 ± 2.1% | −7.3 ± 7.6% | 2.2 ± 4.1% | 17 mg | Inhibition of CYP 2E1 ([1]; 16.5 μM): 38.95 ± 1.92%; Inhibition of CYP 2E1 ([1]; 33 μM): 36.40 ± 2.18%; Inhibition of CYP 2E1 ([1]; 66 μM): 57.08 ± 1.85% |
| COc1cc(-c2oc3cc(O)cc(O)c3c(=O)c2O)ccc1O [Isorhamnetin] | 13.8 ± 1.0% | 20.0 ± 4.6% | 31.3 ± 1.3% | 14 mg | – |
| CCCCCCCCCCCC1=C(O)C(=O)C=C(O)C1=O [Embelin] | – | – | – | – | Minimum Effective Dose [2]: 16 mg |
| O=C(CCc1ccc(O)cc1)c1c(O)cc(O)cc1O[C@@H]1O[C@H](CO)[C@@H](O)[C@H](O)[C@H]1O [Phloridzin] | – | – | – | – | Minimum Effective Dose [2]: 24 mg |
| O=c1c(-c2ccc(O)cc2)coc2c([C@@H]3O[C@H](CO)[C@@H](O)[C@H](O)[C@H]3O)c(O)ccc12 [Puerarin] | 40.9 ± 3.6% | 33.0 ± 3.3% | 17.9 ± 7.2% | – | Minimum Effective Dose [2]: 23 mg |
| O=C(O)c1ccc(O)c(O)c1 [Protocatechuic acid] | 11.5 ± 4.0% | 10.9 ± 2.0% | 15.7 ± 8.1% | – | Minimum Effective Dose [2]: 8 mg |
| Oc1cc(O)c2c(c1)O[C@H](c1ccc(O)c(O)c1)[C@H](O)C2 [(−)-Epicatechin] | −25.8 ± 6.2% | −4.8 ± 10.5% | 3.6 ± 4.3% | – | Inhibition of CYP 2E1 ([2]; 16.5 μM): 18.27%; Inhibition of CYP 2E1 ([2]; 66 μM): 2.57%; Minimum Effective Dose [2]: 16 mg |
| CC1CCC(C(C)C)C(O)C1 (stereo not shown) [Menthol] | – | – | – | – | Minimum Effective Dose ([1]; Table 7): 8 mg; inhibition at 30 min, 0.08 % (w/v) (CYP2E1): 20.8 ± 2.1%; inhibition at 30 min, […] (w/v) (CYP2E1): 10.5 ± 0.4%; inhibition at 30 min, 0.167 % (w/v) (CYP2E1): 30.8 ± 0.3% |
| O=c1cc(-c2ccccc2)oc2ccc3ccccc3c12 [β-naphthoflavone] | – | – | – | – | Inhibition of CYP 2E1 ([2]; 16.5 μM): 6.52%; Inhibition of CYP 2E1 ([2]; 66 μM): 15.40%; Minimum Effective Dose [2]: 15 mg |
| CCCOC(=O)c1ccc(O)cc1 [Propylparaben] | – | – | – | – | Minimum Effective Dose ([1]; Table 7): 9 mg; inhibition at 30 min, 16.5 µM (CYP2E1): -4.1 ± 1.2%; inhibition at 30 min, 33 µM (CYP2E1): -17.2 ± 2.4%; inhibition at 30 min, 66 µM (CYP2E1): -27.3 ± 3.7% |
| O=c1c(-c2ccc(O)cc2)coc2cc(O)ccc12 [Daidzein] | −12.1 ± 6.3% | 1.0 ± 7.4% | 16.2 ± 12.6% | 14 mg | – |
| O=c1c(O)c(-c2ccc(O)cc2O)oc2cc(O)cc(O)c12 [Morin] | −16.6 ± 4.8% | 9.1 ± 1.7% | 59.8 ± 5.1% | 16 mg | – |
| O=c1c(-c2ccc(O)cc2)coc2cc(O)cc(O)c12 [Genistein] | −2.1 ± 46.2% | 1.8 ± 7.6% | 5.8 ± 6.8% | 15 mg | – |
| O=c1cc(-c2ccc(O)c(O)c2)oc2cc(O[C@@H]3O[C@H](CO)[C@@H](O)[C@H](O)[C@H]3O)cc(O)c12 [Luteolin-7-Glucoside] | 3.2 ± 0.8% | 8.7 ± 1.9% | 12.9 ± 3.1% | 24 mg | Inhibition of CYP 2E1 ([1]; 16.5 μM): 42.96 ± 5.10%; Inhibition of CYP 2E1 ([1]; 33 μM): 55.87 ± 0.67%; Inhibition of CYP 2E1 ([1]; 66 μM): 60.26 ± 1.11% |
| O=c1c(O)c(-c2ccc(O)c(O)c2)oc2cc(O)cc(O)c12 [Quercetin] | 48.1 ± 15.0% | 62.3 ± 4.4% | 75.5 ± 2.2% | 16 mg | – |
| COC(=O)c1ccc(O)cc1 [Methylparaben] | – | – | – | – | Minimum Effective Dose ([1]; Table 7): 8 mg; inhibition at 30 min, 16.5 µM (CYP2E1): 4.6 ± 3.2%; inhibition at 30 min, 33 µM (CYP2E1): -14 ± 2.2%; inhibition at 30 min, 66 µM (CYP2E1): -21.5 ± 2% |
| O.OC[C@H]1O[C@@H](O[C@H]2[C@H](O)[C@@H](O)C(O)O[C@@H]2CO)[C@H](O)[C@@H](O)[C@H]1O (stereo partly shown) [Lactose monohydrate] | – | – | – | – | Minimum Effective Dose ([1]; Table 7): 18 mg; inhibition at 30 min, 16.5 µM (CYP2E1): 7.8 ± 2.2%; inhibition at 30 min, 33 µM (CYP2E1): 3.9 ± 2.3%; inhibition at 30 min, 66 µM (CYP2E1): 8.7 ± 3.8% |
| C=C(C)C1CC=C(C)CC1 (single isomer, unassigned; (+)) [(+)-Limonene] | 5.1 ± 0.4% | 3.2 ± 8.6% | 6.2 ± 3.8% | – | Inhibition of CYP 2E1 ([1]; 16.5 μM): 13.77 ± 1.96%; Inhibition of CYP 2E1 ([1]; 33 μM): 38.05 ± 1.95%; Inhibition of CYP 2E1 ([1]; 66 μM): 63.64 ± 2.74% |
| O=c1cc(-c2ccc(O)c(O)c2)oc2cc(O)cc(O)c12 [Luteolin] | 6.1 ± 9.1% | 23.0 ± 6.0% | 47.5 ± 6.2% | 16 mg | – |

From patent US8969312B2, “Low side effect pharmaceutical composition containing antituberculosis drugs” (priority 2011, dated 2015)
